Like-named read-outs stand apart in the source and are kept apart here.

A short description of series [1]: Plasma protein binding, Rapid Equilibrium Dialysis (RED). The series is classed as in vitro ADME, mouse. The conditions noted are these: mouse, plasma (100%, sodium citrate), pH 7.4, 37 °C, read-out: Plasma free fraction (% Free), Mouse. On the procedure: (§1) The plasma protein binding of LJ-4378 was evaluated using the Rapid Equilibrium Dialysis (RED) method with 100% plasma from human (Biochemed, BC22089NCP), rat (Innovative, IRT-N), and mouse (Biochemed, 029-APSC-MP), all treated with sodium citrate as an anticoagulant. The RED device (ThermoFisher Scientific, #89809) and reusable base plate (ThermoFisher Scientific, #89811) were used with an 8 K MWCO membrane. Test compounds were added to plasma at a final concentration of 10 μM and dialyzed against phosphate-buffered saline (PBS, pH 7.4; Hyclone, #SH30256.01) at 37 °C for 4 h. After incubation, equal volumes of plasma and PBS samples were mixed with blank PBS and blank plasma, respectively, followed by the addition of acetonitrile containing chlorpropamide (TRC, C424800) as the internal standard. […] All measurements were performed in duplicate with a deviation of less than 15% between replicates. The free fraction (% Free) was calculated as (concentration in buffer chamber/concentration in plasma chamber) × 100, and the bound fraction (% Bound) was obtained by subtracting % Free from 100. In cases where measurements were unstable, deviations greater than 15% were allowed.
For orientation: In equilibrium dialysis only unbound substance equilibrates across the membrane.

Assay in series [2]: as above
The series is classed as in vitro ADME, human. The settings on record: human, plasma (100%, sodium citrate), pH 7.4, 37 °C, read-out: Plasma free fraction (% Free), Human. On the procedure:
as §1

Assay in series [3]: as above
It counts as in vitro ADME, rat. The conditions noted are these: rat, plasma (100%, sodium citrate), pH 7.4, 37 °C, read-out: Plasma free fraction (% Free), Rat. On the procedure: as §1

Series [4] can be described thus: Plasma stability assay. It counts as in vitro ADME, rat. The conditions noted are these: rat, plasma (100%, sodium citrate), 37 °C; for remaining at 0.5 h, 10 μM: 30 min, read-out: % Remaining compound, Rat plasma 30 min; for remaining at 2 h, 10 μM: 120 min, read-out: % Remaining compound, Rat plasma 120 min. On the procedure: (§2) The plasma stability of LJ-4378 was evaluated using 100% plasma obtained from human (Biochemed, BC22089NCP, sodium citrate), rat (Innovative, IRT-N, sodium citrate), and mouse (Biochemed, 029-APSC-MP, sodium citrate). 10 Μm of LJ-4378 was added to the plasma, and samples were incubated at 37 °C for 0, 30, and 120 min. At each time point, an aliquot of the plasma was removed and mixed with acetonitrile containing the internal standard, chlorpropamide (TRC, C424800). […] The supernatant was injected into the LC–MS/MS system for quantification of the remaining compound. Analysis was performed using a Nexera XR system (Shimadzu, Japan) with a TSQ Vantage mass spectrometer (Thermo, USA). […] Data acquisition was conducted in MRM mode using Xcalibur software (version 4.4). All experiments were performed in duplicate with a deviation within 15%, and the percentage of compound remaining (% Remaining) at each time point was calculated relative to the non-incubated control sample. For quality control, procaine and enalapril (each at 10 μM) were used as reference compounds and were confirmed to fall within acceptable ranges.

Series [5] can be described thus: Plasma stability assay. The settings on record: human, plasma (100%, sodium citrate), 37 °C. It counts as in vitro ADME, human. On the procedure: as §2
Series [6] can be described thus: Plasma stability assay. The settings on record: mouse, plasma (100%, sodium citrate), 37 °C; for remaining at 0.5 h, 10 μM: 30 min, read-out: % Remaining compound, Mouse plasma 30 min; for remaining at 2 h, 10 μM: 120 min, read-out: % Remaining compound, Mouse plasma 120 min. It counts as in vitro ADME, mouse. Here is the method: as §2
A further series addresses CYP2C9 (Homo sapiens, UniProt P11712). Briefly: CYP enzyme inhibition in pooled human liver microsomes (diclofenac substrate). The conditions noted are these: human, pooled human liver microsomes, pH 7.4. On the procedure:
(§3) Cytochrome 450 (CYP) enzyme inhibition was evaluated using pooled human liver microsomes (Corning, #452117). […] Substrates and corresponding metabolites for each CYP isoform were as follows: phenacetin and acetaminophen for CYP1A2 (Sigma Aldrich, #77440 and A7085, respectively), diclofenac and 4'-hydroxydiclofenac for CYP2C9 (Sigma Aldrich, D6899; TRC, H825225), S-mephenytoin and 4'-hydroxymephenytoin for CYP2C19 (Sigma Aldrich, UC175; Santacruz, sc210197), dextromethorphan and dextrorphan for CYP2D6 (Sigma Aldrich, #81091 and UC205), and midazolam and 1'-hydroxymidazolam for CYP3A4 (KFDA; Sigma Aldrich, UC430).
(§4) Samples were preincubated at 37 °C for 5 min, and the reaction was initiated by the addition of the NADPH regeneration system, followed by incubation at 37 °C for 15 min. The reaction was terminated by adding acetonitrile containing the internal standard, and centrifuged at 15,000 rpm for 5 min at 4 °C. The supernatant was analyzed by LC–MS/MS using a Nexera XR system (Shimadzu, Japan) coupled with a TSQ Vantage mass spectrometer (Thermo, USA). […] Metabolites were quantified in multiple reaction monitoring (MRM) mode with Xcalibur software (version 4.4).
(§5) All experiments were performed in duplicate with variability ≤ 15%. The percent activity of each CYP enzyme was calculated based on metabolite formation relative to the no-inhibitor control.
(Liver microsomes are vesicles of endoplasmic reticulum, rich in cytochrome P450 enzymes.)

A further series addresses T1, CYP1A2 (Homo sapiens, UniProt P05177).
T1 sequence (P05177 1-516): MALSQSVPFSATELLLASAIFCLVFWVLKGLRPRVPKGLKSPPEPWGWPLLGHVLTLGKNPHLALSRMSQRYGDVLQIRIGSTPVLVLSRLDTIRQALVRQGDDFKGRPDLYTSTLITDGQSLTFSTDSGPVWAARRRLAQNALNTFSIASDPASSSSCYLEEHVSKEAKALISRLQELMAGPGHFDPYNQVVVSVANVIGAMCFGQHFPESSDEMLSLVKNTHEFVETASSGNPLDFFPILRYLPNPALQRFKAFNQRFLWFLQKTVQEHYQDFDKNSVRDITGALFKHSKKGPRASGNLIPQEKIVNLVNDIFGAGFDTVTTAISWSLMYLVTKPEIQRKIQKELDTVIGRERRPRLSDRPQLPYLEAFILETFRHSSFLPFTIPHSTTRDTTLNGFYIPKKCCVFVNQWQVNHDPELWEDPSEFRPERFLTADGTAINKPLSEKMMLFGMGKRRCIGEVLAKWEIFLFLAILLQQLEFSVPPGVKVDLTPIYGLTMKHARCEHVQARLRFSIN
Kind of series: CYP enzyme inhibition in pooled human liver microsomes (phenacetin substrate). The settings on record: human, pooled human liver microsomes, pH 7.4. On the procedure:
as §3, §4, §5

In the next series the target is CYP2C19 (Homo sapiens, UniProt P33261). Kind of series: CYP enzyme inhibition in pooled human liver microsomes (S-mephenytoin substrate). The settings on record: human, pooled human liver microsomes, pH 7.4. On the procedure: as §3, §4, §5
CYP2C19, sequence (P33261 whole entry): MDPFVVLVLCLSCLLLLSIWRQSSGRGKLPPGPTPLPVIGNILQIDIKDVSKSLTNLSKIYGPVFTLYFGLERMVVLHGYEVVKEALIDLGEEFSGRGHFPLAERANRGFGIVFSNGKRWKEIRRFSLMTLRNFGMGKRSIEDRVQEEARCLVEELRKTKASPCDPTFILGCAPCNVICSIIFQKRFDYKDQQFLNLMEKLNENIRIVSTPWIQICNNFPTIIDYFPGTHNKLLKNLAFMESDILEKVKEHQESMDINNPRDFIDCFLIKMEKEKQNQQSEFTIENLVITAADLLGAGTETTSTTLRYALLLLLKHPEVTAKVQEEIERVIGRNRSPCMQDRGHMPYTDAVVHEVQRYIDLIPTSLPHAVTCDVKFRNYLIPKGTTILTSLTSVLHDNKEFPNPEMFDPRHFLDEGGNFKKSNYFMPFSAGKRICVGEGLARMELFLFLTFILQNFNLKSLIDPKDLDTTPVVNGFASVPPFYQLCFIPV

CYP2C9, sequence (P11712 whole entry, canonical isoform): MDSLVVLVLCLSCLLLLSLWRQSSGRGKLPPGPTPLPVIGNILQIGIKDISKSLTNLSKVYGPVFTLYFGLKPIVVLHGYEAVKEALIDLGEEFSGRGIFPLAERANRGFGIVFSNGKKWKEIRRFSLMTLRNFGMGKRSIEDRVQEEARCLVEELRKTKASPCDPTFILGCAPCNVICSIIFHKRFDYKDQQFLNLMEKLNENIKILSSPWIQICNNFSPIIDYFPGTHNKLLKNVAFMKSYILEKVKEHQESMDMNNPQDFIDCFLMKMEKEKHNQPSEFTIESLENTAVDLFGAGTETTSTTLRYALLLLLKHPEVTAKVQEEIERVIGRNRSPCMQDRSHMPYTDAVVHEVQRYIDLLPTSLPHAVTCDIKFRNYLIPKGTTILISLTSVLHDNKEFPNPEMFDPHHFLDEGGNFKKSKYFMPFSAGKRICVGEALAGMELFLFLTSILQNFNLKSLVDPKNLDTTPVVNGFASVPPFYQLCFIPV

As to `C[C@@H]1C[C@H]2[C@@H]3CCC4=CC(=O)C=C[C@]4(C)[C@@]3(F)[C@@H](O)C[C@]2(C)[C@@]1(O)C(=O)CO` [Dexamethasone], the fraction unbound at 4 h, 10 μM in [1] amounted to 0.297; in [2] it was 0.359; in [3], 0.222.

Regarding `CCOC(=O)[C@H](CCc1ccccc1)N[C@@H](C)C(=O)N1CCC[C@H]1C(=O)O` [Enalapril, enalapril], the fraction remaining at 0.5 h, 10 μM is 34.5% in the series “Plasma stability assay [4]”; over 100% in “Plasma stability assay [5]” (30 min, read-out: % Remaining compound, Human plasma 30 min); 66% in “Plasma stability assay [6]”. Moreover, the share remaining at 2 h, 10 μM in the series “Plasma stability assay [4]” came out at 1.4%; in “Plasma stability assay [5]” (120 min, read-out: % Remaining compound, Human plasma 120 min) it was 95.9%; in the series “Plasma stability assay [6]”, 26.3%.

With `CC(=O)N1CCN(c2ccc(OCC3COC(Cn4ccnc4)(c4ccc(Cl)cc4Cl)O3)cc2)CC1` (stereo not drawn) [Ketoconazole, ketoconazole, reference compound], the values for the activity at 15 min, 10 µM at CYP2C9, on CYP1A2 and at CYP2C19 were 98%, 98.3% and over 100%, respectively.

As for `CCN(CC)CCOC(=O)c1ccc(N)cc1` [Procaine, procaine], the share remaining at 0.5 h, 10 μM is 85.2% in “Plasma stability assay [4]” and 7% in “Plasma stability assay [6]”. The amount remaining at 2 h, 10 μM was 45.2% in the series “Plasma stability assay [4]” and under 1% in the series “Plasma stability assay [6]”. Besides, the fraction remaining at 5 min, 10 μM in “Plasma stability assay [5]” (5 min (printed in the 30 min column), read-out: % Remaining compound, Human plasma 5 min) amounted to 1.2%. Besides, the share remaining at 10 min, 10 μM in “Plasma stability assay [5]” (10 min (printed in the 120 min column), read-out: % Remaining compound, Human plasma 10 min) was under 1%.

Turning to `CC(=O)CC(c1ccccc1)c1c(O)c2ccccc2oc1=O` (stereo not drawn) [Warfarin], the fraction unbound at 4 h, 10 μM in series [1] was 0.062; in series [2], 0.006; in [3], 0.01.

As a reminder, the fraction remaining is what is left of the initial amount, in per cent.

Source of the values: publication PMC12680861, “Comparative analysis of LJ-4378 and tirzepatide in mouse models of obesity and weight regain” (Archives of Pharmacal Research, 2025).
